According to patent US20260373101A1, “POLYAMINATED FATTY ACIDS FOR USE AS POTENTIATORS OF ANTIBACTERIAL ACTIVITY” (priority 2023, published 2026):
pIC50: −log10 of the molar value. ≈ marks a conversion by molar mass, not a printed value.

What was measured:
Type in all cases: cell-based
P. aeruginosa ATCC27853 [1] = test: Antibacterial activity in combination with doxycycline; details: Pseudomonas aeruginosa; P. aeruginosa ATCC27853 + Doxycycline (2 μg/ml), 24 h
Description: (§1) 100 μl of a liquid culture medium is deposited in each well of a 96-well microplate, and then inoculated with the bacterial suspension of example 2.1 prepared for the positive control. The volume needed to inoculate is calculated for an OD of 0.01 which corresponds to approximately 5,106 bacteria in each well. In this plate, the first row corresponds to a negative control (200 μl of sterile culture medium in each well), the second row to a positive control (100 μl of sterile culture medium with 100 μl of the bacterial suspension), the third row contains 192 μl of culture medium and 8 μl of polyaminated fatty acid compound to be tested in each well. Subsequently, a cascade dilution is performed from this line. Next, 3-8 μl of a doxycycline solution (1 mg dissolved in 20 ml) is added to each well of the lines to obtain a final antibiotic concentration of 2 μg/ml. Then, 92 μl of bacterial suspension is added to lines 3 to 8. The MIC with a concentration of doxycycline of 2 μg/ml in the presence of X μg/ml of polyaminated fatty acid compound is determined after 24 hours of incubation at 37 °C in a humid atmosphere.
The table 2 below reports the antibacterial activity (MIC in μM) of a combination of some polyaminated fatty acids prepared in example 1 with two antibacterial drugs doxycycline and erythromycin. […] On the Gram-negative strain of E. coli ([…]), erythromycin has a MIC of 50 μg/ml.

[2] = system: Chinese hamster ovary cells (CHO-K1); test: Toxicity on mammalian cells, WST1 assay; details: Cricetulus griseus; CHO-K1 cell viability, WST1, 24 h
Description: The WST1 assay was used to measure the cytotoxic activity of the polyaminated fatty acid compounds. It is a colorimetric assay that measures viability and cell proliferation rate. It is based on the cleavage of colorless tetrazolium salts WST-1 (4-[3-(4-iodophenyl)-2-(4-nitrophenyl)-2H-5-tetrazolio]-1,3-benzene disulfonate) by mitochondrial dehydrogenases into yellow formazan derivative, quantifiable by spectrophotometry at 420-480 nm.
The WST1 assay was performed on Chinese hamster ovary cells. CHO-K1 cells (ATCC, USA) were maintained in culture in “Mac Coy's 5A” medium supplemented with 10% fetal calf serum, 2 mM L-glutamine and streptomycin penicillin mixture (100 U/ml: 10 μg/ml). Incubation is carried out at 37 °C under CO2 enriched atmosphere (5% by volume) and subcultured every two days.
Cells are transferred to 96-well plates (25,000 cells/ml) in complete “Mac Coy's 5A medium”, and maintained for 24 h at 37 °C under a humid CO2-enriched atmosphere (5% by volume). Increasing concentrations of given polyaminated fatty acid compounds are added to the wells in duplicate assays and 8 growth controls containing cells in medium alone are included in each assay run. After 24 hours at 37 °C (5% CO2), the culture medium is removed, the cells are rinsed in phosphate buffer (PBS) and 50 μL of PBS containing 10% WST1 reagent is added to each well. After 20 minutes of incubation at 37 °C, the results are read by spectrophotometry at 450 nm.
The results are expressed as dose-response relationships, modeled by a non-linear regression analysis using TableCurve software. The 50% Inhibitory Concentration (IC50) represents the concentration of polyaminated fatty acid compound capable of reducing cell viability by 50%.

E. coli ATCC28922 [3] = test: Intrinsic antibacterial activity, standard microdilution (CLSI); details: Escherichia coli, ATCC28922, 24 h
P. aeruginosa ATCC27853 [4] = test: as above; details: Pseudomonas aeruginosa; P. aeruginosa ATCC27853, compound alone, 24 h, 37 °C
Description: (§2) The bacterial strains used in the examples below are the reference strains P. aeruginosa ATCC27853, E. coli ATCC25922, K. pneumoniae ATCC51296, S. aureus ATCC25923 and E. faecalis ATCC29212. The bacterial strains were previously stored in 15% (v/v) glycerol at −80 °C for cryoprotection. One colony of the fresh culture of each strain was incubated in a culture tube containing 3 ml of Mueller-Hinton broth (MH2) at 37 °C overnight with agitation. This suspension was used for inoculum preparation.
(§3) The antibacterial activity of said polyaminated fatty acid compounds was measured using a standard microdilution test based on Clinical and Laboratory Standards Institute (CLSI) guidelines. This method was slightly modified by increasing the assay volumes to 200 μl so as to improve reproducibility.
(§4) A negative control which corresponds to 2 ml of sterile culture medium and a positive control which corresponds to a mixture of 1980 μl of culture medium and 20 μl of bacterial suspension from a thawed biological strain (biological strains are stored at −80 °C in glycerol) were prepared.
(§5) The tubes were incubated in an incubator shaker “Infors” at 37 °C for 24 hours at 100 round per minute (rpm).
(§6) The polyaminated fatty acid compounds to be tested were prepared in water at a concentration of 10 mM.
(§7) The required volume of the microbial suspension to be inoculated was calculated for an optical density (OD) measured corresponding to a value equal to 0.01 in each well by using a spectrophotometer at 600 nm. In the microplate, the first row corresponded to the negative control (200 μl of sterile culture medium in each well), the second row to the positive control (seeded culture medium), the third row was loaded twice with bacterial suspension and with 8 μl of a given polyaminated fatty acid compound in each well. Subsequently, a half-fold cascade dilution was performed from this line. The first column was used as an inhibition control. A sterile filter was then placed on the microplate allowing the passage of gases but not contaminants. The microplate was incubated at 37 °C in a humid atmosphere for 24 hours. After 24 hours of incubation, an optical density measurement was performed by taking 100 μl of the bacterial suspension diluted in 900 μl of sterile culture medium.
(§8) The medium used was Mueller-Hinton medium (MH) for bacteria. All tests were performed in duplicate.
(§9) Table 1 below reports the intrinsic antibacterial activity of some polymaminated fatty acids prepared in example 1 (MIC in μM) as well as their toxicity towards eucaryotic cells (IC50 in μM).

S. aureus ATCC25923 = test: as above; details: Staphylococcus aureus; S. aureus ATCC25923, compound alone, 24 h, 37 °C
Description: as §2, §3, §4, §5, §6, §7, §8, §9

E. faecalis ATCC29212 = test: as above; details: Enterococcus faecalis; E. faecalis ATCC29212, compound alone, 24 h, 37 °C
Description: as §2, §3, §4, §5, §6, §7, §8, §9

E. coli ATCC28922 [5] = test: Antibacterial activity in combination with erythromycin; details: Escherichia coli, ATCC28922, 24 h
Description: as §1
The table 2 below reports the antibacterial activity (MIC in μM) of a combination of some polyaminated fatty acids prepared in example 1 with two antibacterial drugs doxycycline and erythromycin. […]

Row | Compound | MIC (P. aeruginosa ATCC27853 [1]) | pIC50 [2] | MIC (E. coli ATCC28922 [3]) | MIC (P. aeruginosa ATCC27853 [4]) | MIC (S. aureus ATCC25923) | MIC (E. faecalis ATCC29212) | MIC (E. coli ATCC28922 [5])
1 | CCCCC/C=C\C/C=C\CCCCCCCC(=O)NCCCNCCCN [PAFA11] | 12.5 µM | 4.68 | 100 µM (≈ 39.4 µg/mL) | 25 µM (≈ 9.84 µg/mL) | 12.5 µM (≈ 4.92 µg/mL) | 12.5 µM (≈ 4.92 µg/mL) | –
2 | CCCCC/C=C\C/C=C\CCCCCCCC(=O)NCCNCCNCCN [PAFA12] | 50 µM | 3.78 | 50 µM (≈ 20.4 µg/mL) | 100 µM (≈ 40.9 µg/mL) | 200 µM (≈ 81.7 µg/mL) | 100 µM (≈ 40.9 µg/mL) | –
3 | CCCCC/C=C\C/C=C\CCCCCCCC(=O)NCCCNCCCCNCCCN [PAFA14] | 6.25 µM | 4.01 | 25 µM (≈ 11.6 µg/mL) | 100 µM (≈ 46.5 µg/mL) | 12.5 µM (≈ 5.81 µg/mL) | 12.5 µM (≈ 5.81 µg/mL) | –
4 | CC[C@H]1OC(=O)[C@H](C)[C@@H](O[C@H]2C[C@@](C)(OC)[C@@H](O)[C@H](C)O2)[C@H](C)[C@@H](O[C@@H]2O[C@H](C)C[C@H](N(C)C)[C@H]2O)[C@](C)(O)C[C@@H](C)C(=O)[C@H](C)[C@@H](O)[C@]1(C)O [erythromycin] | – | – | – | – | – | – | 50 µg/mL
